Reference: patent publication US20240398831A1, “COMPOSITIONS COMPRISING SMALL MOLECULE REGULATORS OF TUMOR IMMUNITY AND METHODS OF USING SAME” (Duke University, priority 2021, published 2024)

Tests used:
[1] = system: B16F10 cells; assay: Quantitative PCR of ER target genes in melanoma cells; type: cell-based, mouse; conditions: E2 1 nM, 16 hr
[2] = system: WNT5A and TCF4 target genes; assay: Quantitative PCR of tumor infiltrating myeloid cells from iBP tumors; type: in vivo, mouse
Description: All target genes were normalized to Rplp0 and then siEsr1 (FIG. 14E) or DMSO (FIG. 14F) samples were normalized to siRNA control. Data are represented as mean±S.E.M. Significance was calculated by Student's t test (FIGS. 14C-14D) (*p<0.05, **p<0.01, and ***p<0.001).
Quantitative PCR of tumor Infiltrating myeloid cells. Tumor infiltrating myeloid cells were isolated from iBP tumors using a CD11b isolation kit (catalog #18970, StemCell Technologies). RNA was isolated using RNA Aqueous Micro kit (catalog #1931, Ambion) followed by cDNA synthesis using an iScript cDNA synthesis kit (Cat #170-7691). Quantitative amplification was performed using Sybr Green (Cat #1725124, Bio-Rad) and a CFX-384 Real Time PCR detection system. Primers used are listed below in TABLE 1.

[3] = system: CD3+ T cells; assay: T cells co-cultured with tumor infiltrating CD11b+ myeloid cells from iBP tumors; type: cell-based, mouse; conditions: myeloid cells from E2 vs placebo treated mice, 72 hr
Description: (§1) T cell proliferation assay and staining. CD3+ T cells were isolated from the spleens of C57BL/6J or P-mel mice with magnetic bead-based T cell isolation kit (Cat #19851, StemCell Technologies). T cells from naïve mice were stained with 5 μM CFSE (Cat #C34554, ThermoFisher Scientific) for 5 minutes in PBS+5% CFS with rapid vortexing following which the cells were washed twice with PBS. Stained T cells were then counted and plated in 96-well plates coated with anti-CD3 antibody (0.5 μg/mL, Cat #19851, ThermoFisher Scientific) anti-CD28 antibody (1 μg/mL, Cat #16-0281-86, Thermo Fisher Scientific) at desired density (250,000 T cells/50,000 CD11b or BMDM) in the presence of IL2 (50 ng/mL) (Cat #212-12, PeproTech). 72 hr after plating the cells were incubated with protein transport inhibitors brefeldin (Cat #00-4506-51, Thermo Fisher Scientific) and monensin (Cat #00-4505-51, Thermo Fisher Scientific) for 6 hr at a final concentration of 2 μM monensin and 3 μg/mL brefeldin after which they were collected and were processed for staining for flow cytometry.
These cells were then co-incubated with CD3^+ T cells isolated from the spleens of non-tumor bearing Pmel mice (Thy1^a/Cy Tg(TcraTcrb)8Rest/J) for 72 hr. iBP tumors express gp100 (Pmel) that can be processed and presented by professional antigen presenting cells to T cells that are specific to the antigen (gp100). Prior to coincubation, T cells were stained with the Carboxyfluorescein succinimidyl ester (CFSE) dye and activated in the presence of sub-optimal CD3/CD28. […] In this experiment, the phenotypic characteristics of the isolated myeloid cells were not defined, i.e., bone marrow derived vs resident macrophages.

[4] = system: B16F10 cells; assay: Proliferation assay; type: cell-based, mouse; conditions: E2 0.01-1 nM, 3 days
Description: ERα+ MCF7 cells served as a positive control. Cells were treated as either mock transfected or transfected with scrambled control or three different siRNA targeting Esr1. […] Esr1 was first normalized to Rplp0 and then Esr1 knockdown samples were normalized to a non-targeting control. RNA was collected from both cell lines after 48 hr of siRNA transfection. […] Mouse ovary served as a positive control. […] ERα+MCF7 cells served as a positive control (FIG. 5E, left). […] Data are expressed as individual data points and represented as mean±S.E.M. Significance was calculated by Student's t test or two-way ANOVA (FIGS. 5E-5F), followed by Bonferroni's multiple correction (**p<0.0001).
Proliferation assay. For proliferation assays, B16F10 cells were plated in DMEM media (without phenol red) supplemented with 10% charcoal-stripped FBS. Cells were plated at a concentration of 1000 cells/well of a 96-well plate for 2 days in 200 μL of media. […] Cells were collected every 24 hr by discarding the media from the plates. Plates were frozen at −80° C. […] Cell numbers were determined by the addition of 100 μL of (conc.) DNA dye […] dye (Sigma Cat #94403) in TNE buffer (10 mM Tris, 2M NaCl and 1 mM EDTA) and the fluorescence was read at an excitation of 360 nm and an emission at 465 nm using a microplate reader.

[5] = system: YuMM5.2 cells; assay: Quantitative PCR of ER target genes in melanoma cells; type: cell-based, mouse; conditions: E2 1 nM, 16 hr
[6] = system: CD4+ and CD8+ T cells; assay: T cell proliferation assay and staining, direct treatment of T cells in vitro; type: cell-based, mouse; conditions: E2 (1 nM)+fulvestrant (100 nM), 3 days
Excerpt: FIG. 17C and FIG. 17H show the percentage of CD44^+CD69^+ activated CD8^+ T cells (FIG. 17C) and CD4^+ T cells (FIG. 17H) from experiments described above. FIG. 17D and FIG. 17I show the percentage of GZMB^+ activated CD8^+ T cells (FIG. 17D) and CD4^+ T cells (FIG. 17I) from experiments described above. FIG. 17E and FIG. 17J show the percentage of IFNγ^+ activated CD8^+ T cells (FIG. 17E) and CD4^+ T cells (FIG. 17J) from experiments described above. Data are expressed as individual data points and represented as mean±S.E.M. Significance was calculated by one way ANOVA.
as §1, with “72 hr after plating the cells were incubated with protein transport inhibitors brefeldin (Cat #00-4506-51, Thermo Fisher Scientific) and monensin (Cat #00-4505-51, Thermo Fisher Scientific) for 6 hr at a final concentration of 2 μM monensin and 3 μg/mL brefeldin after which they were collected and were processed for staining for flow cytometry.” left out

Compound	expression of classical ER target genes (Pgr and Cxc112) [1]	genes in the WNT5A and TCF4 pathways ([2]; E2 compared to placebo)	expression of Vegfa, Tgm2 and Tspo and Stat1 ([2]; myeloid cells from E2 treated tumors)	T cell (both CD4+ and CD8+) proliferation, CFSE dye dilution [3]	expression of IFNγ in CD8+ and CD4+ T cells [3]	expression of granzyme B (GZMB) in CD8+ and CD4+ T cells [3]	proliferation [4]	expression of classical ER target genes (Pgr and Cxc112) [5]	proliferation or cytotoxic capabilities of CD4+ or CD8+ T cells [6]
17β-estradiol [E2]	did not lead to changes	differentially regulated	increased expression	significantly inhibited	decreased expression	decreased expression	nor did it support proliferation	did not lead to changes	–
C[C@]12CC[C@@H]3c4ccc(O)cc4C[C@@H](CCCCCCCCC[S+]([O-])CCCC(F)(F)C(F)(F)F)[C@H]3[C@@H]1CC[C@@H]2O (stereo partly drawn) [fulvestrant]	–	–	–	–	–	–	–	–	did not affect
